Like-named read-outs stand apart in the source and are kept apart here.
Target: Human FXR (NR1H4) (Homo sapiens (Human), UniProt Q96RI1)
Experiment: Human FXR (NR1H4) Assay (Gal4 promoter driven luciferase reporter transactivation in CHO cells)
Type: cell-based
Description: Assays Human FXR (NR1H4) Assay
Determination of a ligand mediated Gal4 promoter driven transactivation to quantify ligand binding mediated activation of FXR. FXR Reporter Assay kit purchased from Indigo Bioscience (Catalogue number: IB00601) to determine the potency and efficacy of compound developed by Enanta that can induce FXR activation. The principle application of this reporter assay system is to quantify functional activity of human FXR. The assay utilizes non-human mammalian cells, CHO (Chinese hamster ovary) cells engineered to express human NR1H4 protein (referred to as FXR). Reporter cells also incorporate the cDNA encoding beetle luciferase which catalyzes the substrates and yields photon emission. Luminescence intensity of the reaction is quantified using a plate-reading luminometer, Envision. Reporter Cells include the luciferase reporter gene functionally linked to an FXR responsive promoter. Thus, quantifying changes in luciferase expression in the treated reporter cells provides a sensitive surrogate measure of the changes in FXR activity. […] The assay is according to the manufacturer's instructions. In brief, the assay was performed in white, 96 well plates using final volume of 200 ul containing cells with different doses of compounds. Retrieve Reporter Cells from −80° C. storage. Perform a rapid thaw of the frozen cells by transferring a 10 ml volume of 37° C. cell recovery medium into the tube of frozen cells. Recap the tube of Reporter Cells and immediately place it in a 37° C. water bath for 5-10 minutes. Retrieve the tube of Reporter Cell Suspension from the water bath. Sanitize the outside surface of the tube with a 70% alcohol swab, and then transfer it into the cell culture hood. Dispense 100 μl of cell suspension into each well of the 96-well Assay Plate. Transfer the plate into 37° C. incubator, allowing the cells adherent to the bottom of the well. Dilute compounds in Dilution Plate (DP), and administrate to cells at Assay Plate (AP). DMSO content of the samples was kept at 0.2%. Cells were incubated for additional 22 hours before luciferase activities were measured. Thirty minutes before intending to quantify FXR activity, remove Detection Substrate and Detection Buffer from the refrigerator and place them in a low-light area so that they may equilibrate to room temperature. Remove the plate's lid and discard all media contents by ejecting it into an appropriate waste container. Gently tap the inverted plate onto a clean absorbent paper towel to remove residual droplets. Cells will remain tightly adhered to well bottoms. Add 100 μl of luciferase detection reagent to each well of the assay plate. Allow the assay plate to rest at room temperature for at least 5 minutes following the addition of LDR. Set the instrument (Envision) to perform a single 5 second “plate shake” prior to reading the first assay well. Read time may be 0.5 second (500 mSec) per well.

[1] = FXR agonistic potency range; CHO reporter cells expressing human NR1H4, 22 hours incubation; read-out: EC50
[2] = efficacy normalized to chenodeoxycholic acid (CDCA) set as 100%

Human FXR (NR1H4), sequence (Q96RI1 whole entry, the tested form may be a part): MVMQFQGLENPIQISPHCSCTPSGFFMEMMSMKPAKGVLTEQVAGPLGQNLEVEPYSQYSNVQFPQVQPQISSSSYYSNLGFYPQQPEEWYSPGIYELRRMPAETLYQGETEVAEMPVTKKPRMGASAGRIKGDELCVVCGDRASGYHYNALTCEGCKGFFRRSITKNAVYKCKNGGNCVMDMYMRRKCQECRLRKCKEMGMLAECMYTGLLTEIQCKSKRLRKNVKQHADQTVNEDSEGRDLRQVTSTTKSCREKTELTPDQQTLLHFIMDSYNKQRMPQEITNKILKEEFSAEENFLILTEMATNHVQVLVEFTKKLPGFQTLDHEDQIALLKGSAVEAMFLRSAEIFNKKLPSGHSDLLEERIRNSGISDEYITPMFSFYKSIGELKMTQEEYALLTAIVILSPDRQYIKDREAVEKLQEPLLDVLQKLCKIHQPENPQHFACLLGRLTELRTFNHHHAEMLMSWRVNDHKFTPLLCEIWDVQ

Row | SMILES | Emax (CHO; read-out: Efficacy (%)) [%] | EC50 (read-out: EC50) [nM] | EC50 [1] [nM] | Efficacy (%) [2] [%] | also measured
1 | CC[C@H]1[C@@H](O)[C@@H]2[C@H](CC[C@]3(C)[C@@H]([C@H](C)CCC(=O)NS(C)(=O)=O)CC[C@@H]23)[C@@]2(C)CC[C@@H](O)C[C@@H]12 [Example 1] | 254 | 100 to 1000 | – | – | –
2 | CCC1C(O)C2C3CCC(C(C)CCC(=O)NS(=O)(=O)CC)C3(C)CCC2C2(C)CCC(O)CC12 (centres unmarked) [Example 2] | – | – | 100 to 1000 | 258 | –
3 | CCC1C(O)C2C3CCC(C(C)CCC(=O)NS(=O)(=O)C(C)C)C3(C)CCC2C2(C)CCC(O)CC12 (centres unmarked) [Example 3] | – | – | 100 to 1000 | 289 | –
4 | CCCCS(=O)(=O)NC(=O)CCC(C)C1CCC2C3C(O)C(CC)C4CC(O)CCC4(C)C3CCC12C (centres unmarked) [Example 4] | – | – | 100 to 1000 | 376 | –
5 | CCC1C(O)C2C3CCC(C(C)CCC(=O)NS(=O)(=O)C(C)(C)C)C3(C)CCC2C2(C)CCC(O)CC12 (centres unmarked) [Example 5] | – | – | < 100 | 218 | –
6 | CCCS(=O)(=O)NC(=O)CCC(C)C1CCC2C3C(O)C(CC)C4CC(O)CCC4(C)C3CCC12C (centres unmarked) [Example 6] | – | – | 100 to 1000 | 295 | –
7 | CCC1C(O)C2C3CCC(C(C)CCC(=O)NS(=O)(=O)Cc4ccccc4)C3(C)CCC2C2(C)CCC(O)CC12 (centres unmarked) [Example 7] | – | – | 1000 to 10000 | 178 | –
8 | C=CCS(=O)(=O)NC(=O)CCC(C)C1CCC2C3C(O)C(CC)C4CC(O)CCC4(C)C3CCC12C (centres unmarked) [Example 9] | – | – | 100 to 1000 | 248 | –
9 | CCC1C(O)C2C3CCC(C(C)CCC(=O)NS(=O)(=O)C(F)(F)F)C3(C)CCC2C2(C)CCC(O)CC12 (centres unmarked) [Example 10] | – | – | 1000 to 10000 | 244 | –
10 | CCC1C(O)C2C3CCC(C(C)CCC(=O)NS(=O)(=O)C4CC4)C3(C)CCC2C2(C)CCC(O)CC12 (centres unmarked) [Example 11] | – | – | 100 to 1000 | 315 | –
11 | CCC1C(O)C2C3CCC(C(C)CCC(=O)NS(=O)(=O)C4(C)CC4)C3(C)CCC2C2(C)CCC(O)CC12 (centres unmarked) [Example 12] | – | – | 100 to 1000 | 331 | –
12 | CCC1C(O)C2C3CCC(C(C)CCC(=O)NS(=O)(=O)N4CCOCC4)C3(C)CCC2C2(C)CCC(O)CC12 (centres unmarked) [Example 16] | – | – | 1000 to 10000 | 219 | –
13 | CCC1C(O)C2C3CCC(C(C)CCC(=O)NS(N)(=O)=O)C3(C)CCC2C2(C)CCC(O)CC12 (centres unmarked) [Example 17] | – | – | 1000 to 10000 | 349 | –
14 | CC[C@H]1[C@@H](O)[C@@H]2[C@H](CC[C@]3(C)[C@@H]([C@H](C)CCC(=O)NS(=O)(=O)c4ccccc4)CC[C@@H]23)[C@@]2(C)CC[C@@H](O)C[C@@H]12 [Example 18] | – | – | < 100 | 329 | –
15 | CCC1C(O)C2C3CCC(C(C)CCC(=O)NS(=O)(=O)c4ccccc4N)C3(C)CCC2C2(C)CCC(O)CC12 (centres unmarked) [Example 19] | – | – | 100 to 1000 | 176 | –
16 | CCC1C(O)C2C3CCC(C(C)CCC(=O)NS(=O)(=O)c4ccccc4C)C3(C)CCC2C2(C)CCC(O)CC12 (centres unmarked) [Example 20] | – | – | 100 to 1000 | 348 | –
17 | CCC1C(O)C2C3CCC(C(C)CCC(=O)NS(=O)(=O)c4ccccc4F)C3(C)CCC2C2(C)CCC(O)CC12 (centres unmarked) [Example 22] | – | – | 100 to 1000 | 259 | –
18 | CCC1C(O)C2C3CCC(C(C)CCC(=O)NS(=O)(=O)c4ccccc4[N+](=O)[O-])C3(C)CCC2C2(C)CCC(O)CC12 (centres unmarked) [Example 23] | – | – | 100 to 1000 | 280 | –
19 | CCC1C(O)C2C3CCC(C(C)CCC(=O)NS(=O)(=O)c4ccc(C)cc4)C3(C)CCC2C2(C)CCC(O)CC12 (centres unmarked) [Example 24] | – | – | < 100 | 271 | –
20 | CCC1C(O)C2C3CCC(C(C)CCC(=O)NS(=O)(=O)F)C3(C)CCC2C2(C)CCC(O)CC12 (centres unmarked) [Example 25] | – | – | 1000 to 10000 | 347 | –

Row | SMILES | Emax (CHO; read-out: Efficacy (%)) [%] | EC50 (read-out: EC50) [nM] | EC50 [1] [nM] | Efficacy (%) [2] [%] | also measured
21 | CC[C@@H]1C2C[C@H](O)CCC2(C)[C@H]2CCC3(C)C([C@H](C)CCC(=O)NS(=O)(=O)c4ccccc4Cl)CC[C@H]3[C@@H]2[C@@H]1O (some centres unmarked) [Example 451] | 274 | 100 to 1000 | – | – | –
22 | CC[C@@H]1C2C[C@H](O)CCC2(C)[C@H]2CCC3(C)C([C@H](C)CCC(=O)NS(=O)(=O)c4cccc([N+](=O)[O-])c4)CC[C@H]3[C@@H]2[C@@H]1O (some centres unmarked) [Example 452] | – | – | – | – | EC50: 1000 to 10000 nM; Emax (CHO, read-out: Efficacy (%)): 292%
23 | CC[C@@H]1C2C[C@H](O)CCC2(C)[C@H]2CCC3(C)C([C@H](C)CCC(=O)NS(=O)(=O)c4ccc(F)cc4)CC[C@H]3[C@@H]2[C@@H]1O (some centres unmarked) [Example 453] | 240 | 100 to 1000 | – | – | –
24 | CC[C@@H]1C2C[C@H](O)CCC2(C)[C@H]2CCC3(C)C([C@H](C)CCC(=O)NS(=O)(=O)c4ccc([N+](=O)[O-])cc4)CC[C@H]3[C@@H]2[C@@H]1O (some centres unmarked) [Example 454] | 353 | 100 to 1000 | – | – | –
25 | CC[C@@H]1C2C[C@H](O)CCC2(C)[C@H]2CCC3(C)C([C@H](C)CCC(=O)NS(=O)(=O)c4ccc(OC)cc4)CC[C@H]3[C@@H]2[C@@H]1O (some centres unmarked) [Example 455] | – | – | < 100 | – | Emax (CHO, read-out: Efficacy (%)): 417%
26 | CC[C@@H]1C2C[C@H](O)CCC2(C)[C@H]2CCC3(C)C([C@H](C)CCC(=O)NS(=O)(=O)c4cccc(F)c4)CC[C@H]3[C@@H]2[C@@H]1O (some centres unmarked) [Example 456] | – | – | < 100 | – | Emax (CHO, read-out: Efficacy (%)): 415%
27 | CC[C@@H]1C2C[C@H](O)CCC2(C)[C@H]2CCC3(C)C([C@H](C)CCC(=O)NS(=O)(=O)c4cccc(C)c4)CC[C@H]3[C@@H]2[C@@H]1O (some centres unmarked) [Example 457] | – | – | < 100 | – | Emax (CHO, read-out: Efficacy (%)): 382%
28 | CC[C@@H]1C2C[C@H](O)CCC2(C)[C@H]2CCC3(C)C([C@H](C)CCC(=O)NS(=O)(=O)c4ccccc4C(F)(F)F)CC[C@H]3[C@@H]2[C@@H]1O (some centres unmarked) [Example 459] | 310 | 100 to 1000 | – | – | –
29 | CC[C@@H]1C2C[C@H](O)CCC2(C)[C@H]2CCC3(C)C([C@H](C)CCC(=O)NS(=O)(=O)c4cccc(C(F)(F)F)c4)CC[C@H]3[C@@H]2[C@@H]1O (some centres unmarked) [Example 460] | – | – | < 100 | – | Emax (CHO, read-out: Efficacy (%)): 291%
30 | CC[C@@H]1C2C[C@H](O)CCC2(C)[C@H]2CCC3(C)C([C@H](C)CCC(=O)NS(=O)(=O)c4ccc(C#N)cc4)CC[C@H]3[C@@H]2[C@@H]1O (some centres unmarked) [Example 461] | 283 | 100 to 1000 | – | – | –
31 | CC[C@@H]1C2C[C@H](O)CCC2(C)[C@H]2CCC3(C)C([C@H](C)CCC(=O)NS(=O)(=O)c4ccccn4)CC[C@H]3[C@@H]2[C@@H]1O (some centres unmarked) [Example 462] | 297 | 100 to 1000 | – | – | –
32 | CC[C@@H]1C2C[C@H](O)CCC2(C)[C@H]2CCC3(C)C([C@H](C)CCC(=O)NS(=O)(=O)c4ccncc4)CC[C@H]3[C@@H]2[C@@H]1O (some centres unmarked) [Example 463] | 251 | 1000 to 10000 | – | – | –
33 | CC[C@@H]1C2C[C@H](O)CCC2(C)[C@H]2CCC3(C)C([C@H](C)CCC(=O)NS(=O)(=O)c4cc(F)cc(F)c4)CC[C@H]3[C@@H]2[C@@H]1O (some centres unmarked) [Example 464] | 293 | 100 to 1000 | – | – | –
34 | CC[C@@H]1C2C[C@H](O)CCC2(C)[C@H]2CCC3(C)C([C@H](C)CCC(=O)NS(=O)(=O)c4ccc(C)c(F)c4)CC[C@H]3[C@@H]2[C@@H]1O (some centres unmarked) [Example 465] | – | – | < 100 | – | Emax (CHO, read-out: Efficacy (%)): 303%
35 | CC[C@@H]1C2C[C@H](O)CCC2(C)[C@H]2CCC3(C)C([C@H](C)CCC(=O)NS(=O)(=O)c4cccnc4)CC[C@H]3[C@@H]2[C@@H]1O (some centres unmarked) [Example 466] | 258 | 1000 to 10000 | – | – | –
36 | CC[C@@H]1C2C[C@H](O)CCC2(C)[C@H]2CCC3(C)C([C@H](C)CCC(=O)NS(=O)(=O)c4cccs4)CC[C@H]3[C@@H]2[C@@H]1O (some centres unmarked) [Example 467] | 315 | 100 to 1000 | – | – | –
37 | CC[C@@H]1C2C[C@H](O)CCC2(C)[C@H]2CCC3(C)C([C@H](C)CCC(=O)NS(=O)(=O)C4CCCCC4)CC[C@H]3[C@@H]2[C@@H]1O (some centres unmarked) [Example 468] | – | – | < 100 | – | Emax (CHO, read-out: Efficacy (%)): 480%
38 | CC[C@@H]1C2C[C@H](O)CCC2(C)[C@H]2CCC3(C)C([C@H](C)CCC(=O)NS(=O)(=O)c4cnccn4)CC[C@H]3[C@@H]2[C@@H]1O (some centres unmarked) [Example 469] | 447 | 1000 to 10000 | – | – | –
39 | CC[C@@H]1C2C[C@H](O)CCC2(C)[C@H]2CCC3(C)C([C@H](C)CCC(=O)NS(=O)(=O)c4cccc5ncccc45)CC[C@H]3[C@@H]2[C@@H]1O (some centres unmarked) [Example 470] | 439 | 100 to 1000 | – | – | –
40 | CC[C@@H]1C2C[C@H](O)CCC2(C)[C@H]2CCC3(C)C([C@H](C)CCC(=O)NS(=O)(=O)c4cccc(OC(F)(F)F)c4)CC[C@H]3[C@@H]2[C@@H]1O (some centres unmarked) [Example 471] | – | – | < 100 | – | Emax (CHO, read-out: Efficacy (%)): 467%

Source: patent US10266560B2, “Bile acid analogs as FXR/TGR5 agonists and methods of use thereof” (Enanta Pharmaceuticals, Inc., priority 2014, dated 2019)
